Source: patent EP0029617A1, “Use of tertiary heterocyclic amines as synergists in pesticides; derivatives of cycloamines” (priority 1979, dated 1981)
Like-named read-outs stand apart in the source and are kept apart here.

Experiments:
[1] = test system: Drosophila melanogaster; assay: whole plant or invertebrate; type: in vivo
From the text: Die insektiziden Wirkungen von tertiären heterocyclischen Aminen und die synergistischen Eigenschaften mit dem Phosphorsäureester Dimethoat und dem Carbamat Dimetilan, getestet an Drosophila melanogaster.
Die Versuche wurden in Petrischalen von 10 cm Durchmesser ausgeführt. Es wurden zunächst die gerade noch wirksamen Konzentrationen von Dimethoat und Dimetilan bestimmt. Für Dimethoat wurde 0,005 % und für Dimetilan 0,0001 % als günstige Versuchskonzentration ermittelt. Die Aminkomponente wurde mit 1 ml 0,05%iger Lösung + 1 ml Aceton auf insektizide Wirkung getestet. Zur Bestimmung des Synergismus wurde 1 ml 0,05%ige Aminlösung + 1 ml 0,005.%ige Dimethoatlösung, bzw. + 1 ml 0,0001%ige Dimetilanlösung pro Petrischale eingesetzt. Alle Verdünnungen wurden mit Aceton als Lösungsmittel hergestellt.
In den Petrischalen wurden die Lösungen am Boden gut verteilt und 30 min lang antrocknen lassen. In jede Petrischale wurden 20 mit Kohlendioxid betäubte Drosophila eingezählt. Alle 5 min, insgesamt 12 mal, wurde die Anzahl der toten Drosophila ausgezählt und notiert. Die Zahlen wurden aufsummiert und im Verhältnis zur möglichen Zahl an toten Drosophila in % angegeben, wobei der Tot aller Drosophila innerhalb der ersten 5 min 100 % Wirkung entspricht. Jeder Versuch wurde mit 3 Wiederholungen durchgeführt. In Tabelle 1 sind die Mittelwerte der Ergebnisse zusammengestellt.
Zur Ermittlung des synergistischen Faktors wurden die Einzelwerte pro Zeiteinheit durch die für Dimethoat, bzw. Dimetilan für die jeweilige Zeiteinheit gefundenen Werte dividiert. Die Werte für jede Zeiteinheit wurden summiert und durch die Anzahl der Zeiteinheiten dividiert. Die Versuche wurden bei sonst stets gleichbleibenden Bedingungen bei Temperaturen von 20 - 22°C ausgeführt. Die Kontrollversuche zeigten bei Versuchsabschluß stets 0 % Mortalität. Hat die Substanz selbst eine insektizide Wirkung, so wurden die Wirkungsfaktoren für Dimethoat und Dimetilan nach Abzug des Substanzwertes berechnet und in der Tabelle aufgeführt.
Im Beispiel 1 war das Verhältnis von Insektizid und erfindungsgemäßem Amin 1 : 10 in den Gemischen mit Dimethoat. In der Tabelle 2 sind Verhältnisse von 1 : 1, 1 : 2 und 1 : 0,2 bei Versuchen mit Dimethoat aufgeführt, dabei wurde das Dimethoat immer in einer Konzentation von 0,005 % eingesetzt. Die Tabelle zeigt, daß auch bei diesen Verhältnissen noch eine gute synergistische Wirkung vorhanden ist, und es keineswegs einer großen überdosierung des Amins bedarf.

[2] = test system: Kornkäfer (sitophilus granarius L); assay: whole plant or invertebrate; type: in vivo; conditions: for mortality at 1000 µg/mL: read-out: Wirksamkeit in % Substanz allein
Procedure, shortened: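 Acetone solutions (2 ml) were dried as films in 15 cm Petri dishes and 25 grain weevils added per dish, with a filter inserted after 1 h. Dead beetles were counted at 3 h at 19–21 °C, and % mortality and the synergistic factor were derived.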

[3] = 1 ml 0,05%ige amine solution + 1 ml 0,0001%ige Dimetilan solution
[4] = 1 ml 0,05%ige amine solution + 1 ml 0,005 %ige Dimethoat solution (Dimethoat : amine 1 : 10)
[5] = 1 ml 0,05%ige amine solution + 1 ml Aceton per dish, 20 flies, dead counted every 5 min, 12 times, mean values
[6] = amine 0,05 % + Dimethoat 0,005 %, calculated after subtracting the amine's own effect
[7] = amine 0,05 % + Dimetilan 0,0001 %, calculated after subtracting the amine's own effect
[8] = amine 1 mg/ml + Ripcord 0,01 mg/ml
[9] = amine 1 mg/ml in Aceton mixed 1 : 1 with Aceton, 2 ml per dish, 25 weevils, dead counted after 3 h
[10] = amine 1 mg/ml mixed 1 : 1 with Ripcord 0,01 mg/ml, 3 h
[11] = amine 1 mg/ml mixed 1 : 1 with Talcord 0,01 mg/ml, 3 h
[12] = Drosophila melanogaster, 1 ml 0,05%ige amine solution + 1 ml Aceton per dish, 20 flies, dead counted every 5 min, 12 times, mean values, read-out: Wirksamkeit in % Substanz allein
[13] = Sitophilus granarius, amine 1 mg/ml in Aceton mixed 1 : 1 with Aceton, 2 ml per dish, 25 weevils, dead counted after 3 h
[14] = amine 1 mg/ml + Talcord 0,01 mg/ml
[15] = drosophila melanogaster, in vivo
[16] = sitophilus granarius, in vivo, 3 h
[17] = Pyrethroid : Amin 1 : 10, amine 0,1 mg/ml, 180 min

SMILES | Wirksamkeit in % Substanz +Dimeti-lan [1, 3] | Wirksamkeit in % Substanz +Dimethoat [1, 4] | Wirksamkeit in % Substanz allein [1, 5] | Faktor der Wirkungssteigerung bei Dime-methoat [1, 6] | Faktor der Wirkungssteigerung bei Dimi-tilan [1, 7] | Synergistischer Faktor bei Ripcord [2, 8] | Wirksamkeit in % Substanz +Ripcord [2, 10] | Wirksamkeit in % Substanz +Talcord [2, 11] | mortality at 0.05 % [1, 12] [%] | Synergistischer Faktor bei Talcord [2, 14] | further results
C(CCCCN1CCOCC1)CCCN1CCOCC1 [1,8-N,N-Dimorpholino-octan] | 10,4% | 23,8% | 1,3% | 2,62 | 3,64 | 1,56 | 93,2% | 50,8% | – | – | Wirksamkeit in % Substanz allein [2, 9]: 44,0%
C(=Cc1ccccc1)CN1CCCC1 [1-Cinnamyl-pyrrolidin] | 55,4% | 5,8% | – | – | 22,2 | 3,08 | 97,2% | 30,8% | 0 | 3,17 | mortality at 1000 µg/mL [2, 13]: 0%
CCCCCCCCCN1CCCCC1CC (stereo not drawn) [1-n-Nonyl-2-ethyl-piperidin] | 7,9% | 24,6% | – | 2,19 | – | – | – | – | 5.8 | – | –
CCCCOC(CN1CCOCC1)OCCCC [2-N-Morpholino-ethyl-di-butyl-acetal] | – | – | – | – | – | – | – | – | – | – | Wirksamkeit in % Substanz +Dimethoat [1, 15]: 17,9%; Wirksamkeit in % Substanz +Dimeti-lan [1, 15]: 3,3%; Wirksamkeit in % Substanz allein [1, 15]: 0,4%; Faktor der Wirkungssteigerung bei Dime-methoat ([1]; in vivo): 2,03; Faktor der Wirkungssteigerung bei Dimi-tilan ([1]; in vivo): 1,16; Synergistischer Faktor bei Ripcord ([2]; in vivo): 3,17; Synergistischer Faktor bei Talcord ([2]; in vivo): 10,31; Wirksamkeit in % Substanz +Ripcord [2, 16]: 100%; Wirksamkeit in % Substanz +Talcord [2, 16]: 100%; Wirksamkeit in % Substanz allein [2, 16]: 0%
CCCCCC(CCCCC)N1CCCC1 [6-N-Pyrrolidino-undecan] | 75,8% | 54,2% | 39,6% | 1,70 | 14,48 | 1,90 | 60,0% | 58,8% | – | 6,06 | Wirksamkeit in % Substanz allein [2, 9]: 0%
Cc1cc(OC(=O)N(C)C)nn1C(=O)N(C)C [Dimetilan, reference compound] | – | – | – | – | – | – | – | – | – | – | mortality at 0.0001 % ([1]; Drosophila melanogaster, read-out: Wirksamkeit von Dimetilan): 2.5%
CCCCCCCCCCN1CCCCC1CC (stereo not drawn) [N-1-Decyl-2-ethyl-piperidin] | 56,3% | 55,8% | – | 2,42 | 8,52 | – | – | – | 35 | – | –
CCCCCCCCCCN1CCCCC1 [N-1-Decyl-piperidin] | – | – | – | – | – | – | – | – | – | – | mortality at 0.005 % ([1]; Drosophila melanogaster, amine 0,005 %, read-out: Sub-stanz allein): 0%; Substanz + Dime-thoat ([1]; amine 0,005 % + Dimethoat 0,005 %, Dimethoat : Amin 1 : 1): 45,4%; Faktor der Wirkungs-steigerung ([1]; amine 0,005 %, Dimethoat : Amin 1 : 1): 5,28; Synergistischer Faktor bei Ripcord ([2]; Pyrethroid : Amin 1 : 10): 3,09; Synergistischer Faktor bei Talcord ([2]; Pyrethroid : Amin 1 : 10): 6,72; % Wirkung Substanz +Ripcord [2, 17]: 97,2%; % Wirkung Substanz +Talcord [2, 17]: 65,2%; mortality at 100 µg/mL ([2]; Sitophilus granarius, 3 h, amine 0,1 mg/ml (as for Pyrethroid : Amin 1 : 10), read-out: % Wirkung Substanz allein): 0%
CCCCCCCCCCN1CCCC1 [N-1-Decyl-pyrrolidin] | 4,8% | 17,1% | – | 1,65 | – | – | 100,0% | 100,0% | 2.9 | 1,90 | mortality at 1000 µg/mL [2, 13]: 81.6%
C=CC(C)(CCC=C(C)C)N1CC1 (stereo not drawn) [N-1-Linalyl-aziridin] | 0,42% | 21,7% | 0% | 2,67 | – | 2,99 | 97,2% | 65,2% | – | 6,72 | Wirksamkeit in % Substanz allein [2, 9]: 0%
C=CC(C)(CCC=C(C)C)N1CCOCC1 (stereo not drawn) [N-1-Linalyl-morpholin] | 20,0% | 30,8% | 11,7% | 2,22 | 3,32 | 2,92 | 92,0% | 33,2% | – | 3,42 | Wirksamkeit in % Substanz allein [2, 9]: 0%
CCCCCCCCCCCCCCN1CCOCC1 [N-1-Tetradecyl-morpholin] | 2,5% | 57,1% | – | 6,64 | – | 2,03 | 64,0% | 5,2% | 0 | – | mortality at 1000 µg/mL [2, 13]: 0%
CCCCCCCCCCCCCN1CCCCC1 [N-1-Tridecyl-piperidin] | 2,3% | 54,6% | – | 6,35 | – | 3,05 | 96,0% | 17,2% | 0 | 1,77 | mortality at 0.01 % ([1]; Drosophila melanogaster, amine 0,01 %, read-out: Sub-stanz allein): 0%; mortality at 0.05 % ([1]; Drosophila melanogaster, amine 0,05 %, read-out: Sub-stanz allein): 0%; Substanz + Dime-thoat ([1]; amine 0,01 % + Dimethoat 0,005 %, Dimethoat : Amin 1 : 2): 42,9%; Faktor der Wirkungs-steigerung ([1]; amine 0,01 %, Dimethoat : Amin 1 : 2): 4,99; Substanz + Dime-thoat ([1]; amine 0,05 % + Dimethoat 0,005 %, Dimethoat : Amin 1 : 10): 54,6%; Faktor der Wirkungs-steigerung ([1]; amine 0,05 %, Dimethoat : Amin 1 : 10): 6,35; mortality at 1000 µg/mL [2, 13]: 0%
C(=CC1CCCCC1)CN1CCCC1 [N-(3-Cyclohexyl-propen-(2))-pyrrolidin] | 0% | 22,5% | 0% | 2,86 | – | – | – | – | – | – | –
CCCCCCCCCCN1CCCCC1C (stereo not drawn) [N-Decyl-2-methyl-piperidin] | 77,9% | 66,7% | – | – | 2,87 | – | – | – | 61.3 | – | –
